Source: ChEMBL document CHEMBL1146350, “Synthesis of some new bioactive 3-amino-2-mercapto-5,6,7,8-tetrahydro[1]benzothieno[2,3-d]pyrimidin-4(3H)-one derivatives” (2007)
Converted amounts (≈) assume the structure as drawn. The source made the active and inactive calls. The calls are words filed in the database; no cut-off is given here.

Legend:
Aspergillus flavus = experiment: Antifungal activity against Aspergillus flavus NCIM 524 by serial plate dilution method; type: functional; conditions: for MIC: Aspergillus flavus, NCIM 524
Klebsiella pneumoniae = experiment: Antibacterial activity against Klebsiella pneumoniae by disc diffusion method; type: functional; conditions: for MIC: Klebsiella pneumoniae
Pseudomonas aeruginosa = experiment: Antibacterial activity against Pseudomonas aeruginosa ATCC 27853 by disc diffusion method; type: functional; conditions: for MIC: Pseudomonas aeruginosa, ATCC 27853
Staphylococcus aureus = experiment: Antibacterial activity against Staphylococcus aureus ATCC 25923 by disc diffusion method; type: functional
Talaromyces marneffei = experiment: Antifungal activity against Penicillium marneffei by serial plate dilution method; type: functional; conditions: for MIC: Talaromyces marneffei
Escherichia coli = experiment: Antibacterial activity against Escherichia coli ATCC 25922 by disc diffusion method; type: functional; conditions: for MIC: Escherichia coli, ATCC 25922
Aspergillus fumigatus = experiment: Antifungal activity against Aspergillus fumigatus NCIM 902 by serial plate dilution method; type: functional; conditions: for MIC: Aspergillus fumigatus, NCIM 902
Trichophyton benhamiae = experiment: Antifungal activity against Trichophyton mentagrophytes by serial plate dilution method; type: functional, Arthroderma benhamiae; conditions: for MIC: Trichophyton benhamiae
Mus musculus [1] = experiment: Anticonvulsant activity in Swiss Albino mouse assessed as mortality at 50 mg/kg, po by PTZ induced seizure test; type: functional, organism-based; design: dose 50 mg/kg
Mus musculus [2] = experiment: Anticonvulsant activity in Swiss Albino mouse assessed as duration of seizure at 50 mg/kg, po by PTZ induced seizure test; type: functional
Mus musculus [3] = experiment: Anticonvulsant activity in Swiss Albino mouse assessed as duration of seizure at 2 mg/kg, po by PTZ induced seizure test; type: functional
[4] = Staphylococcus aureus, ATCC 25923, read-out: MIC

Compound | inhibition zone (IZ) (Aspergillus flavus) [mm] | MIC (Aspergillus flavus) [µg/mL] | inhibition zone (IZ) (Klebsiella pneumoniae) [mm] | MIC (Klebsiella pneumoniae) [µg/mL] | inhibition zone (IZ) (Pseudomonas aeruginosa) [mm] | MIC (Pseudomonas aeruginosa) [µg/mL] | inhibition zone (IZ) (Staphylococcus aureus) [mm] | MIC (Staphylococcus aureus; [4]) [µg/mL] | inhibition zone (IZ) (Talaromyces marneffei) [mm] | MIC (Talaromyces marneffei) [µg/mL] | inhibition zone (IZ) (Escherichia coli) [mm] | MIC (Escherichia coli) [µg/mL] | inhibition zone (IZ) (Aspergillus fumigatus) [mm] | MIC (Aspergillus fumigatus) [µg/mL] | inhibition zone (IZ) (Trichophyton benhamiae) [mm] | MIC (Trichophyton benhamiae) [µg/mL] | MIC (Staphylococcus aureus) [ug/sq.cm] | Activity (Mus musculus [1]) | Activity (Mus musculus [2]) [s] | Activity (Mus musculus [3]) [s]
Nn1c(SCC(=O)c2ccnc(Cl)c2)nc2sc3c(c2c1=O)CCCC3 | 6 | > 100 | 10 | 80 (≈ 197 µM) | 8 | > 100 | 10 | 80 (≈ 197 µM) | 6 | > 100 | 8 | > 100 | 10 | 80 (≈ 197 µM) | 8 | > 100 | – | – | – | –
CN[C@@H]1[C@H](O[C@H]2[C@H](O[C@H]3[C@H](O)[C@@H](O)[C@H](N=C(N)N)[C@@H](O)[C@@H]3N=C(N)N)O[C@@H](C)[C@]2(O)C=O)O[C@@H](CO)[C@H](O)[C@H]1O (stereo in doubt) [STREPTOMYCIN] | – | – | 24 | < 6.25 | 24 | < 6.25 | 21 | – | – | – | 20 | < 6.25 | – | – | – | – | <6.25 | – | – | –
O=c1c2c3c(sc2nc2sc(CCl)nn12)CCCC3 | – | – | – | – | – | – | – | – | – | – | – | – | – | – | – | – | – | inactive | 450 | 70
COc1ccc(C(=O)CSc2nc3sc4c(c3c(=O)n2N)CCCC4)cc1 | 12 | 80 (≈ 199 µM) | 18 | 12.5 (≈ 31.1 µM) | 8 | > 100 | 8 | > 100 | 8 | > 100 | 8 | > 100 | 16 | 12.5 (≈ 31.1 µM) | 4 | > 100 | – | inactive | 450 | 41
O=c1c2c3c(sc2nc2sc(-c4cc(Cl)cc(Cl)c4)nn12)CCCC3 | 6 | > 100 | 6 | > 100 | 8 | > 100 | 8 | > 100 | 5 | > 100 | 8 | > 100 | 5 | > 100 | 6 | > 100 | – | – | – | –
O=c1c2c3c(sc2nc2sc(Cc4ccccc4)nn12)CCCC3 | 10 | 80 (≈ 226 µM) | 8 | > 100 | 10 | 80 (≈ 226 µM) | 8 | > 100 | 6 | > 100 | 10 | 80 (≈ 226 µM) | 6 | > 100 | 6 | > 100 | – | – | – | –
Nn1c(SCC(=O)c2ccc(Cl)cc2)nc2sc3c(c2c1=O)CCCC3 | 6 | > 100 | 6 | > 100 | 18 | 12.5 (≈ 30.8 µM) | 8 | > 100 | 6 | > 100 | 8 | > 100 | 8 | > 100 | 8 | > 100 | – | inactive | 255 | 400
OC(Cn1cncn1)(Cn1cncn1)c1ccc(F)cc1F [FLUCONAZOLE] | 18 | < 6.25 | – | – | – | – | – | – | 21 | < 6.25 | – | – | 21 | < 6.25 | 19 | < 6.25 | – | – | – | –
